In patent US9834550B2, “Pyridopyrimidinone compounds for modulating the catalytic activity of histone lysine demethylases (KDMs)” (Dong-A Socio Holdings Co., Ltd., priority 2014, dated 2017):

Biological target: T1, Recombinant human JARID1B/KDM5B (Homo sapiens, UniProt Q9UGL1)
T1 construct: purchased Active Motif 31432; host or cells: Sf9 insect cells
Experiment: LANCE Ultra TR-FRET demethylase assay with FLAG-tagged JARID1B
Assay type: biochemical
Details: 100 nM compound; 500 nM biotinylated H3K4me3 peptide substrate
Procedure, shortened: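 Sf9-expressed N-FLAG full-length JARID1B (10–30 nM) preincubated 5 min with compound at 20, 1 or 0.1 uM (1% DMSO), then 500 nM biotin-H3K4me3 peptide, 500 uM 2-OG, 25 uM Fe(II), 2 mM ascorbate added; 30 min at room temperature in Hepes pH 7.5. H3K4me2/1 product read by TR-FRET 665/590 ratio.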

T1 sequence (Q9UGL1 whole entry): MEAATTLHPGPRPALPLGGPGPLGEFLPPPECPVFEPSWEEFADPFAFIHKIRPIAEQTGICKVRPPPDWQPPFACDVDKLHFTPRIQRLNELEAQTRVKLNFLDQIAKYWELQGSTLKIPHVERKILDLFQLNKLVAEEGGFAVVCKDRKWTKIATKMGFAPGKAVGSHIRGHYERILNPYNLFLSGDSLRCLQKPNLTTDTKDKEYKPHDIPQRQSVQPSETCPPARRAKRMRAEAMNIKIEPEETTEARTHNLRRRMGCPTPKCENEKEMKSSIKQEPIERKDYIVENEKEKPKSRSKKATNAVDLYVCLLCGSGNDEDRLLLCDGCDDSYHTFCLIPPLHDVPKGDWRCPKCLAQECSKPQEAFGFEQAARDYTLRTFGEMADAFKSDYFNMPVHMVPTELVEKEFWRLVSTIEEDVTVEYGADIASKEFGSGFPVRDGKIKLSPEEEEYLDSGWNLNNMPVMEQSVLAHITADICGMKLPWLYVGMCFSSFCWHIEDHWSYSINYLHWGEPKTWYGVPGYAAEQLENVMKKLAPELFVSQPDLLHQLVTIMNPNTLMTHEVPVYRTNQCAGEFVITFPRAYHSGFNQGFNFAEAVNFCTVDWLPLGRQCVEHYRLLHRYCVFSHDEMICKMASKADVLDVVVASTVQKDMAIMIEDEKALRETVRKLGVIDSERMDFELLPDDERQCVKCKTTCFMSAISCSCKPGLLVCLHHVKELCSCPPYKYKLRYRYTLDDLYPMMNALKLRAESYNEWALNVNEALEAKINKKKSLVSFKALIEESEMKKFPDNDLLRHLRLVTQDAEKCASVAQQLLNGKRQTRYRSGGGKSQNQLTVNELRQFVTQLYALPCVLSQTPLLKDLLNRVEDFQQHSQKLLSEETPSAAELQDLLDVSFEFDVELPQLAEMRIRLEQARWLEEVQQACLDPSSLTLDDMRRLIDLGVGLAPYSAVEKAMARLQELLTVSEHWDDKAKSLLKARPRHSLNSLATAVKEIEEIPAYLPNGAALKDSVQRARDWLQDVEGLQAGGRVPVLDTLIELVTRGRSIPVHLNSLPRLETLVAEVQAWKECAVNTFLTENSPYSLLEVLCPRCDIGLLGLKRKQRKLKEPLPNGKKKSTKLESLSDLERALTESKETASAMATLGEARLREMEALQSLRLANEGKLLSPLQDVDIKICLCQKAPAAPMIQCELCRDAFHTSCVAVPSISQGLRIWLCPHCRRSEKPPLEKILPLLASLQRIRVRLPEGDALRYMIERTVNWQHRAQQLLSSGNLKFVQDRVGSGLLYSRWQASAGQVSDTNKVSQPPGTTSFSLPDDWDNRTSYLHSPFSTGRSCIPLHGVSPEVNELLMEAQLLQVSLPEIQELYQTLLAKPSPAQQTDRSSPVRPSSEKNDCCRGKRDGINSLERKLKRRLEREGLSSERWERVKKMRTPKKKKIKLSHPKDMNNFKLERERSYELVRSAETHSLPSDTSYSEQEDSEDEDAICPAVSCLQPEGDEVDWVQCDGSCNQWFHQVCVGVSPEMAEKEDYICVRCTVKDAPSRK

Row | Structure (SMILES) | inhibition at 0.1 µM
1 | CCN(CC)CCCC(C)NCc1nccc2c(=O)[nH]cnc12 (stereo not shown) [Example 87, 8-(((5-(diethylamino)pentan-2-yl)amino)methyl)pyrido[3,4-d]pyrimidin-4(3H)-one] | < 20%
2 | O=C1CCCN1CCCNCc1nccc2c(=O)[nH]cnc12 [Example 88, 8-(((3-(2-oxopyrrolidin-1-yl)propyl)amino)methyl)pyrido[3,4-d]pyrimidin-4(3H)-one] | < 20%
3 | CN1CCC(CNCc2nccc3c(=O)[nH]cnc23)C1 (stereo not shown) [Example 92, 8-((((1-methylpyrrolidin-3-yl)methyl)amino)methyl)pyrido[3,4-d]pyrimidin-4(3H)-one] | 20 to 50%
4 | O=c1[nH]c(COc2cc(F)cc(F)c2)nc2c(CNCC3CCNCC3)nccc12 [Example 125, 2-((3,5-difluorophenoxy)methyl)-8-(((piperidin-4-ylmethyl)amino)methyl)pyrido[3,4-d]pyrimidin-4(3H)-one] | 20 to 50%
5 | O=c1[nH]c(COc2cnc(Br)cn2)nc2c(CNCC3CCNCC3)nccc12 [Example 131, 2-(((5-bromopyrazin-2-yl)oxy)methyl)-8-(((piperidin-4-ylmethyl)amino)methyl)pyrido[3,4-d]pyrimidin-4(3H)-one] | 20 to 50%
6 | O=c1[nH]c(COc2cccc(CNC3CCOCC3)c2)nc2cnccc12 [Example 44, 2-((3-(((tetrahydro-2H-pyran-4-yl)amino)methyl)phenoxy)methyl)pyrido[3,4-d]pyrimidin-4(3H)-one] | < 20%
7 | CCCOC1CCN(Cc2cccc(OCc3nc4cnccc4c(=O)[nH]3)c2)CC1 [Example 43, 2-((3-((4-propoxypiperidin-1-yl)methyl)phenoxy)methyl)pyrido[3,4-d]pyrimidin-4(3H)-one] | 20 to 50%
8 | Cc1cc(OCc2nc3c(CNCC4CCNCC4)nccc3c(=O)[nH]2)ccc1Cl [Example 134, 2-((4-chloro-3-methylphenoxy)methyl)-8-(((piperidin-4-ylmethyl)amino)methyl)pyrido[3,4-d]pyrimidin-4(3H)-one] | 20 to 50%
9 | O=c1[nH]c(COc2ccc(Br)cc2)nc2c(CNCC3CCN(Cc4ccccc4)CC3)nccc12 [Example 108, 8-((((1-benzylpiperidin-4-yl)methyl)amino)methyl)-2-((4-bromophenoxy)methyl)pyrido[3,4-d]pyrimidin-4(3H)-one] | > 50%
10 | O=c1[nH]c(COc2cccc(CNCCN3CCOCC3)c2)nc2cnccc12 [Example 45, 2-((3-(((2-morpholinoethyl)amino)methyl)phenoxy)methyl)pyrido[3,4-d]pyrimidin-4(3H)-one] | < 20%
11 | CC(NCc1nccc2c(=O)[nH]cnc12)C1CCNCC1 (stereo not shown) [Example 94, 8-(((1-(piperidin-4-yl)ethyl)amino)methyl)pyrido[3,4-c]pyrimidin-4(3H)-one] | < 20%

Results, then the compound that gave them:

Row | inhibition at 0.1 µM | Structure (SMILES)
12 | > 50% | O=c1[nH]c(COc2ccc(F)c(Cl)c2)nc2c(CNCC3CNCCO3)nccc12 (stereo not shown) [Example 167, 2-((3-chloro-4-fluorophenoxy)methyl)-8-(((morpholin-2-ylmethyl)amino)methyl)pyrido[3,4-d]pyrimidin-4(3H)-one]
13 | > 50% | CN1CCC(CNCc2nccc3c(=O)[nH]c(COc4ccc(Cc5ccccc5)cc4)nc23)C1 (stereo not shown) [Example 144, 2-((4-benzylphenoxy)methyl)-8-((((1-methylpyrrolidin-3-yl)methyl)amino)methyl)pyrido[3,4-d]pyrimidin-4(3H)-one]
14 | < 20% | CN1CCC(CNCc2nccc3c(=O)[nH]c(C4CCCO4)nc23)CC1 (stereo not shown) [Example 194, 8-((((1-methylpiperidin-4-yl)methyl)amino)methyl)-2-(tetrahydrofuran-2-yl)pyrido[3,4-d]pyrimidin-4(3H)-one]
15 | 20 to 50% | O=c1[nH]c(COCc2ccccc2)nc2c(CNCC3CCNCC3)nccc12 [Example 202, 2-((benzyloxy)methyl)-8-(((piperidin-4-ylmethyl)amino)methyl)pyrido[3,4-d]pyrimidin-4(3H)-one]
16 | < 20% | O=c1[nH]c(C2CCc3ccccc3O2)nc2c(CNCC3CCNCC3)nccc12 (stereo not shown) [Example 199, 2-(chroman-2-yl)-8-(((piperidin-4-ylmethyl)amino)methyl)pyrido[3,4-d]pyrimidin-4(3H)-one]
17 | < 20% | CN1CCC(CNCc2nccc3c(=O)[nH]c(C4CCOC4)nc23)CC1 (stereo not shown) [Example 196, 8-((((1-methylpiperidin-4-yl)methyl)amino)methyl)-2-(tetrahydrofuran-3-yl)pyrido[3,4-d]pyrimidin-4(3H)-one]
18 | 20 to 50% | CN(C)C(=O)c1ccc(CNCc2nccc3c(=O)[nH]c(COc4ccc(F)c(Cl)c4)nc23)o1 [Example 174, 5-((((2-((3-chloro-4-fluorophenoxy)methyl)-4-oxo-3,4-dihydropyrido[3,4-d]pyrimidin-8-yl)methyl)amino)methyl)-N,N-dimethylfuran-2-carboxamide]
19 | < 20% | CN1CCC(CNCc2nccc3c(=O)[nH]c(C4Cc5ccccc5C4)nc23)CC1 [Example 201, 2-(2,3-dihydro-1H-inden-2-yl)-8-((((1-methylpiperidin-4-yl)methyl)amino)methyl)pyrido[3,4-d]pyrimidin-4(3H)-one]
20 | > 50% | CN1CCC(CNCc2nccc3c(=O)[nH]c(COCc4ccccc4Cl)nc23)CC1 [Example 210, 2-(((2-chlorobenzyl)oxy)methyl)-8-((((1-methylpiperidin-4-yl)methyl)amino)methyl)pyrido[3,4-d]pyrimidin-4(3H)-one]
21 | < 20% | Cc1cc(C)n(CCNCc2nccc3c(=O)[nH]c(COc4ccc(F)c(Cl)c4)nc23)n1 [Example 183, 2-((3-chloro-4-fluorophenoxy)methyl)-8-(((2-(3,5-dimethyl-1H-pyrazol-1-yl)ethyl)amino)methyl)pyrido[3,4-d]pyrimidin-4(3H)-one]

System: MDA-MB-231 breast cancer cells
Experiment: Cell invasion assay (transwell, BME)
Assay type: cell-based
Details: 10 μM; 24-h incubation; FIG. 2
Protocol: The ability of MDA-MB-231 breast cancer cells to invade into the basement membrane through a layer of BME (Basement Membrane Extract) was determined by using transwell inserts in a 24-well plate. The pore size of membrane was […]. The basement membrane was reconstituted by loading cold BME on top of the polycarbonate filter of the inserts of the transwell plate. After gelation of Matrigel at 37° C., MDA-MB-231 cells were plated into the inserts (1×10^5 cells/0.3 ml/well), and complete media were added to the lower wells (0.5 ml/well). To analyze the effect of 10 μM of compounds No. 87, 167, isonicotinic acid r or SAHA, was present in the cell suspensions. After a 24-h incubation, the noninvasive cells were remained within the inserts while cells that traversed through the BME and the polycarbonate filter were attached to the lower surface of the filter. The penetrated cells were then stained with 0.1% crystal violet.

Row | Structure (SMILES) | MDA-MB-231 breast cancer cell invasion potential
22 | O=c1[nH]c(COc2ccc(F)c(Cl)c2)nc2c(CNCC3CNCCO3)nccc12 (stereo not shown) [Example 167, 2-((3-chloro-4-fluorophenoxy)methyl)-8-(((morpholin-2-ylmethyl)amino)methyl)pyrido[3,4-d]pyrimidin-4(3H)-one] | decreased the MDA-MB-231 breast cancer cell invasion potential
23 | O=C(CCCCCCC(=O)Nc1ccccc1)NO [SAHA, reference compound] | decreased the MDA-MB-231 breast cancer cell invasion potential

System: MDA-MB-231 cell migration
Experiment: Wound healing assay
Assay type: cell-based
Details: 24 h treatment; compared to DMSO; FIG. 1
Protocol: Breast cancer cells (MDA-MD-231) were seeded into 12-well plates (2500 cells/well), at bottom of which culture-inserts were implemented. The cells were cultured to subconfluence in RPMI1640 medium supplemented with 0.5% FBS and 100 μg/ml penicillin/streptomycin, and then starved in serum-free media for one day at 37° C. and 5% CO2. The inserts were removed to generate two cell patches separated each other by 0.9 mm of ‘wound fields’. Cultures were then treated with test compounds for 24 h. The results of wound healing assays at indicated time were photographed under microscopy with ×40 magnification after generating the wound fields. […] Similar results were obtained in three independent samples. The cancer cells were stained with 0.1% crystal violet at 24-hours time points.

Row | Structure (SMILES) | MDA-MB-231 cell migration (wound healing)
24 | CCN(CC)CCCC(C)NCc1nccc2c(=O)[nH]cnc12 (stereo not shown) [Example 87, 8-(((5-(diethylamino)pentan-2-yl)amino)methyl)pyrido[3,4-d]pyrimidin-4(3H)-one] | inactive
25 | CN1CCC(CNCc2nccc3c(=O)[nH]c(COc4ccc(Cc5ccccc5)cc4)nc23)C1 (stereo not shown) [Example 144, 2-((4-benzylphenoxy)methyl)-8-((((1-methylpyrrolidin-3-yl)methyl)amino)methyl)pyrido[3,4-d]pyrimidin-4(3H)-one] | suppressed MDA-MB-231 cell migration
